Several values for one entry are separate records, joined by “and”; a condition that tells them apart may be missing. Identical values can stand only once. Entries after “also recorded” stand apart in the source; their conditions may differ. Square brackets hold non-standard residues; d marks the D form. Ends that are not written are not given here. * marks the point of attachment. Agmatine = N=C(N)NCCCCN*; Nle = CCCC[C@H](N)C(=O)O; Orn = NCCC[C@H](N)C(=O)O; Abu = CC[C@H](N)C(=O)O
Legend:
INS-1 cells [1] = assay: Ultrastructural analysis of INS-1 cells; type: cell-based, rat; details: JI-36 10^−6 M
Description: (§1) INS-1 cells were grown for 72 hrs prior to experimentation; islets were collected immediately after the isolation procedure and each were divided into three treatment groups: (1) Culture media with vehicle (DMSO) served as control group, (2) Culture media containing GHRH agonist JI-36 (10^−6 M), (3) culture media with JI-36 plus GHRH antagonist MIA-602 (10^−6 M). Media change and addition of the analogues was performed after 24 hrs and 48 hrs in islet cultures and every other day in INS-1 cell cultures.

rat islets [2] = assay: Islet membrane integrity, FDA/PI viability staining; type: cell-based; details: 72 hrs in culture, n=4
Description: Small aliquots of islets were transferred in phosphate-buffered saline (PBS) containing Petri dishes. Fluorescein diacetate (FDA) and propidium iodide (PI) were added to the samples at a final concentration of 0.5 and 75 μM, respectively. Using a fluorescence microscope, 100 islets were assessed for cell viability by estimating the percentage of viable cells (green) versus percentage of non-viable cells (red) within each islet. The percentage of viable cells was then calculated (33).

INS-1 cells [3] = assay: Cell proliferation of INS-1 insulinoma cells; type: cell-based, rat
Description: (§2) Rat insulinoma cells (INS-1) were cultured in RPMI 1640 medium (PAA, Pasching, Austria) supplemented with 2 mM L-glutamine, 10% fetal bovine serum (FBS), 1 mM Na-pyruvate, 50 μM 2-mercaptoethanol and 100 U/ml penicillin-streptomycin (Gibco, Gaithersburg Md.) in a humidified 5% CO2/[…] atmosphere at 37° C. The culture medium was changed every other day. Cells were grown for 72 hrs prior to experimentation. GHRH agonist JI-36 (10^−6-10^−9 M) and GHRH antagonist MIA-602 ([…]) were used for 24-96 hrs, respectively.
as §1

[4] = tested on: streptozotocin-induced diabetic NOD-SCID mice; assay: Transplantation of pretreated rat islets beneath the kidney capsule of diabetic mice; type: in vivo
Description: NOD-SCID mice (MTZ breed) with induced diabetes were used as islet recipients following guidelines established by the University of Dresden Institutional Animal Care and Use Committee. Diabetes was induced by a single intraperitoneal injection of 180 mg/kg streptozotocin (Sigma-Aldrich, St. Louis, Mo.). Serum glucose was then measured daily using an Ascensia Elite glucometer (Bayer, Burr Ridge, Ill.). Mice were considered diabetic if non-fasting blood glucose (BG) was >350 mg/dL for two or more consecutive days. Rat islet preparations were used for transplantation. Islets from each preparation were divided into two groups, and JI-36 (10^−6 M) or vehicle (DMSO) was added to the culture media. Islets were cultured for 48 hrs prior to transplantation. After culture, samples of 300 IEQ were washed in transplant media (Ringer acetate with 5% glucose and 10% FBS), and transplanted to beneath the left kidney capsule. The animal experiments and housing were in accordance with institutional guidelines and German animal regulations.
The non-fasting blood glucose levels were measured daily during the first week and twice a week thereafter. On day 25, mice were subjected to an intraperitoneal glucose tolerance test (IPGTT). Two days later, grafts were removed. This led to a recurrence of the diabetic state. This proves that restoration and maintenance of normoglycemia was due to islet graft function.
On follow-up, sustained non-fasting blood glucose levels of ≦10 mM (≦180 mg/dl) were defined as “cure”, 10 to 18 mM (180 to 320 mg/dl) as “partial function” of transplanted islets, and levels above 18 mM (>320 mg/dl) as “graft failure”.

isolated rat islets [5] = assay: Immunostaining of islets for insulin and Ki-67; type: cell-based; details: 72 hrs in culture with JI-36
INS-1 cells [6] = assay: Cell apoptosis of INS-1 cells (activity of caspases 3 and 7); type: cell-based, rat
Description: as §2, §1

rat islets [7] = assay: Static glucose-stimulated insulin secretion; type: cell-based
Description: For static insulin secretion in response to glucose challenge, islets were transferred into Petri dishes containing oxygenated Krebs-Ringer bicarbonate buffer (KRB, 137 mM NaCl, 4.7 mM KCl, 1.2 mM KH2PO4, 1.2 mM MgSO4-7H2O, 2.5 mM CaCl2-2H2O, 25 mM NaHCO3, 0.25% BSA) and pre-incubated in 3.3 mM glucose at 37° C. (5% CO2) for 30 min. Groups of 8-10 islets from the equilibration cultures were transferred to fresh oxygen-saturated media containing either 3.3 or 16.7 mM glucose and then incubated an additional 60 min in a 37° C. water bath with gentle shaking. Secreted insulin in the media was measured by ELISA (Millipore, Billerica, Mass.) and values normalized to extracted islet DNA (Quant-iT™ Picogreen, Invitrogen).

[8] = tested on: streptozotocin-induced diabetic NOD-SCID mice; assay: Intraperitoneal glucose tolerance test after islet transplantation; type: in vivo
Description: Mice were fasted overnight (at least 6 hrs) before examination. A glucose solution was given at 3 g/kg BW i.p. and blood glucose was recorded before injection and 15, 30, 45, 60, 90 and 120 min following glucose injection. Non-transplanted mice were used as controls and tested concurrently.

isolated rat islets [9] = assay: Islet particle number and islet size (islet equivalents) in culture; type: cell-based; details: rat islets in culture with JI-36 10^−6 M
Description: Pancreatic islets were isolated from male Wistar rats according to guidelines established by the University of Dresden Institutional Animal Care and Use Committee. Animals were anesthetized by 3% isoflurane; digestion solution (Collagenase V, Sigma-Aldrich, St. Louis, Mo.) was injected in situ via the pancreatic common bile duct. Islets were purified by centrifugation on a discontinuous Ficoll gradient (Mediatech). Purified islets were maintained in culture media (CMRL 1066, Mediatech, USA) supplemented with 10% FBS at 37° C. in a 5% CO2 incubator. Volume and purity were determined by microscopic sizing after staining with dithizone (Sigma-Aldrich, St. Louis, Mo.).
Triplicate samples of 100 to 300 islet particles were stained with dithizone (Sigma-Aldrich, St. Louis, Mo.), which binds zinc ions present specifically in islet β-cells, and sized using an eyepiece reticle and inverted microscope (32). The term islet particle describes an individual islet independent of its size. All islet particles with a diameter >50 μm were divided into classes of 50 μm increments (i.e., 50-100, 100-150, 150-200, etc.) for calculation of islet equivalents (IEQ). Each diameter class was converted into the mean volume of 150-μm diameter islets by a relative conversion factor. These factors allow converting the total islet particle number from any preparation into IEQ. […]

[10] = tested on: myocardial infarction (MI); details: in vivo; cited from earlier work
rat hearts = details: cited from earlier work
cardiomyocytes = details: in vitro; cited from earlier work

(Dat^1, Thr^8, Orn^12,21, Abu^15, Nle^27, Asp^28, Agm^29)hGH-RH(1-29) ([Dat]ADAIFTTSYR[Orn]VL[Abu]QLSAR[Orn]LLQDI[Nle]D[Agmatine]) [JI-36, synthetic GHRH agonist]
ultrastructural changes / metabolic state (INS-1 cells [1]): more active metabolic state; also recorded: metabolic active stimulation state with increased cytoplasm
islet viability (rat islets [2]): 96±3.3%
cell proliferation rates (in words) (INS-1 cells [3]; 10^−6-10^−9 M, 24-96 hrs): significant and dose-dependent increase
increase in cell proliferation compared to control (INS-1 cells [3]; JI-36 10^−6 M, 72 hrs): 50%
most effective concentration for cell proliferation (INS-1 cells [3]; tested 10^−6-10^−9 M): 10^−6 M
animals cured (stable normoglycemia) ([4]; 300 IEQ islets pretreated with JI-36 10^−6 M 48 hrs, day 25): 5 of 6 and 5 out of 6
graft integration (insulin immunostaining) ([4]; day 27 after transplantation): stable graft integration
blood glucose control after transplantation versus untreated islets (in words) ([4]; islets pretreated with JI-36): consistently performed better; also recorded: rapid and persistent recovery from diabetes; also recorded: earlier and more consistently
animals with partial graft function ([4]; islets pretreated with JI-36, day 25): one
insulin and Ki-67 staining (proliferation in beta cells) (isolated rat islets [5]): co-localization of the two markers
degree of cell apoptosis (in words) (INS-1 cells [6]; 10^−6-10^−9 M, 24-96 hrs, INS-1 cells): significant decrease; also recorded: reduction
reduction of apoptosis (activity of caspases 3 and 7) (INS-1 cells [6]; JI-36 10^−6 M, 72 hrs, INS-1 cells): 20%
time of maximal anti-apoptotic effect (INS-1 cells [6]; incubation 24-96 hrs): 72 h
most effective concentration for anti-apoptotic effect (INS-1 cells [6]; tested 10^−6-10^−9 M, INS-1 cells): 10^−6 M
insulin release at basal glucose versus control (in words) (rat islets [7]; 3.3 mM glucose): slight increase; also recorded: did not cause a relevant difference
insulin release at basal glucose (rat islets [7]; 3.3 mM glucose, 1 hr, after 48 hrs exposure, n=5): 2.3 ± 0.5 ng/mL
insulin release upon glucose stimulation compared to control (in words) (rat islets [7]; 16.7 mM glucose): more than double; also recorded: increased
insulin release at high glucose (rat islets [7]; 16.7 mM glucose, after 48 hrs exposure, n=5): 8.2 ± 0.2 ng/mL
insulin release at high glucose relative to basal glucose (rat islets [7]; 16.7 mM vs 3.3 mM glucose): 3.6 fold
time to revert initial hyperglycemia to normal ranges in IPGTT ([8]; day 25): ≤ 2 h
response in IPGTT ([8]; day 25, glucose 3 g/kg i.p.): comparable to that of normal healthy mice
islet equivalents (IEQ/IP ratio, islet size) versus control (isolated rat islets [9]; 24-72 hrs): increased islet size
number of islet particles over time versus control (isolated rat islets [9]; up to 72 hrs): no relevant change; also recorded: no difference between treatment group and control

(Dat^1, Gln^8, Orn^12,21, Abu^15, Nle^27, Asp^28, Agm^29)hGH-RH(1-29) [JI-38]
cardiac effect following myocardial infarction [10]: favorable cardiac effect, attenuating infarct size

rat GHRH: rat growth hormone-releasing hormone, cited cardioprotection study (HADAIFTSSYRRILGQLYARKLLHEIMNRQQGERNQEQRSRFN; Somatoliberin; UniProt P09916 31-73, looked up)
protection from ischemia-reperfusion injury (rat hearts): protected
survival of cardiomyocytes (cardiomyocytes): promoted survival
